Results as given in patent publication US7208266B2, “Endogenous coagulation activator compounds —use in exploring endogenous coagulation” (Societe Diagnostica-Stago, priority 2001, dated 2007).

Columns and labels:
Type in all cases: biochemical
endogenous coagulation [1] = assay: APTT coagulation time, reagents from amides or esters of gallic acid (Example 2); settings: for Coagulation time, CCN / Coagulation time, CCP / Coagulation time, Heparins Batch 0811 / Coagulation time, Lupus Batch 021 / Coagulation time, Pool N LIK 800 / Coagulation time, Heparins Batch 1706: gallic acid derivative 100 μM
Excerpt: Thus, the invention also concerns a method for measuring the activated partial thromoboplastin time (APTT) comprising the steps of: • bringing a platelet-depleted plasma sample into contact with compounds or compositions in accordance with the invention, in the presence of substitutes for the phospholipids of the platelet membrane, under conditions that allow activation of the endogenous coagulation pathway; • adding Ca^2+ ions in a quantity equivalent to the quantity of these ions that have been complexed in the plasma sample; • measuring the time required to transform fibrinogen into fibrin.
In particular, within the context of carrying out the above method, the plasma sample is constituted by a platelet-depleted plasma and a coagulation activator is incubated with the plasma for a period of about 2 to 5 minutes, at 37° C. The phospholipid membrane substitutes are either added from the start of the reaction, or mixed with the activator, or added individually during the reaction.
Then the calcium ions are added, for example in the form of calcium chloride in a concentration in the range 20 mM to 25 mM. The time required for fibrin formation is then measured.
In the next example, the coagulation times for different plasmas were determined from APTT reagents obtained from amides or esters of gallic acid. • normal plasmas=pool of equivalent quantities of plasmas from normal subjects; • CCN=coag. control normal: control plasma, normal level; • CCP=coag. control patho: control plasma, disease level; • heparins=plasmas from patient receiving an anticoagulating treatment based on non-fractionated heparin in the form of sodium or calcium salts; • lupus=plasma from a patient presenting with Lupus anticoagulant Syndrome; • def.f VIIIc=plasma from a patient presenting with a f VIIIc deficit (haemophilia A).

endogenous coagulation [2] = assay: as above; settings: gallic acid derivative 100 μM
endogenous coagulation [3] = assay: APTT coagulation time, activation kinetics of ethylene glycol gallate heated at 80° C. (Example 3); settings: 500 μM in solution buffered to pH 7.00, after heating for 24 hours at 80° C.
Experimental: After heating for 24 hours at 80° C., 500 μM of ethylene glycol gallate in solution buffered to a pH of 7.00 became active in an APTT coagulation test.
The procoagulating activity of the ethylene glycol gallate solution was compared with that of a reference reagent: CK-PREST, an APTT reagent in which the activator is kaolin. The instrument used to measure the coagulation time was an automated STA Diagnostica Stago haemostasis instrument (series n° 307).
The test plasmas were quality control plasmas:
CCN=coag control normal; CCP=coag control patho, batch n° 980901.
APTT reagent produced=ethylene glycol gallate, 500 μM, oxidised at 80° C.+Tricine, […], pH 7.00+cephaline (substitute for platelet phospholipids).

endogenous coagulation [4] = assay: APTT coagulation time versus ethylene glycol gallate concentration (Example 6)
Experimental: The coagulating activity of an APTT reagent requires the joint action of two active principles: • a molecule activating the contact phase of the endogenous pathway. In fact, this was ethylene glycol gallate activated by heating to 80° C.; • a substitute for the phospholipids of the platelet membrane, cephaline, obtained by extracting rabbit brains with chloroform;
Optimum activity of the APTT reagent thus constituted depends on the concentrations of ethylene glycol gallate and cephaline.
The following tables show the results obtained for representative plasmas for different disorders and for some controls.

[5] = Ethylene Glycol gallate 1000 μM

N[C@@H](CO)C(=O)O [H2N—CH—(CH2OH)—COOH]
Coagulation time, CCN (endogenous coagulation [1]): 210.9 s
Coagulation time, CCP (endogenous coagulation [1]): 189.3 s
Coagulation time, Heparins Batch 0811 (endogenous coagulation [1]): >300.0 s
Coagulation time, Lupus Batch 021 (endogenous coagulation [1]): 232.6 s
Coagulation time, Pool N LIK 800 (endogenous coagulation [1]): 245.0 s
Coagulation time, f VII def 25% (endogenous coagulation [2]): 153.0 s

O=C(OCCO)c1cc(O)c(O)c(O)c1 [ethylene glycol gallate]
Coagulation times compared with the reference reagent, CK-Prest (endogenous coagulation [1]; all plasmas of the table, derivative 100 μM): nearest results to those obtained with the reference reagent
Coagulation time, CCN (endogenous coagulation [1]): 32.7 s
Coagulation time, CCP (endogenous coagulation [1]): 50.5 s
Coagulation time, Heparins Batch 0811 (endogenous coagulation [1]): 112.5 s
Coagulation time, Heparins Batch 1706 (endogenous coagulation [1]): 65.7 s
Coagulation time, Lupus Batch 021 (endogenous coagulation [1]): 45.7 s
Coagulation time, Pool N LIK 800 (endogenous coagulation [1]): 37.4 s
Activity in an APTT coagulation test (endogenous coagulation [3]): became active
Coagulation time Control batch n° 80901 Normal (endogenous coagulation [4]; Ethylene Glycol gallate 10 μM): 130.6 s
Coagulation time Control batch n° 80901 Path (endogenous coagulation [4]; Ethylene Glycol gallate 10 μM): >140.0 s
Coagulation time Plasma (LA) MA 030 (endogenous coagulation [4]; Ethylene Glycol gallate 10 μM): >140.0 s
Coagulation time Plasma def f VIIIc (endogenous coagulation [4]; Ethylene Glycol gallate 10 μM): 121.9 s
Coagulation time Plasmas Heparins Batch 1635 (endogenous coagulation [4]; Ethylene Glycol gallate 10 μM): >140.0 s
Coagulation time Plasmas Heparins Batch 1726 (endogenous coagulation [4]; Ethylene Glycol gallate 10 μM): >140.0 s
Coagulation time Control batch n° 80901 Normal (endogenous coagulation [4]; Ethylene Glycol gallate 25 μM): 124.5 s
Coagulation time Control batch n° 80901 Path (endogenous coagulation [4]; Ethylene Glycol gallate 25 μM): 103.3 s
Coagulation time Plasma (LA) MA 030 (endogenous coagulation [4]; Ethylene Glycol gallate 25 μM): 103.3 s
Coagulation time Plasma def f VIIIc (endogenous coagulation [4]; Ethylene Glycol gallate 25 μM): 73.1 s
Coagulation time Plasmas Heparins Batch 1635 (endogenous coagulation [4]; Ethylene Glycol gallate 25 μM): >140.0 s
Coagulation time Plasmas Heparins Batch 1726 (endogenous coagulation [4]; Ethylene Glycol gallate 25 μM): >140.0 s
Coagulation time Control batch n° 80901 Normal (endogenous coagulation [4]; Ethylene Glycol gallate 50 μM): 88.6 s
Coagulation time Control batch n° 80901 Path (endogenous coagulation [4]; Ethylene Glycol gallate 50 μM): 99.6 s
Coagulation time Plasma (LA) MA 030 (endogenous coagulation [4]; Ethylene Glycol gallate 50 μM): 66.6 s
Coagulation time Plasma def f VIIIc (endogenous coagulation [4]; Ethylene Glycol gallate 50 μM): 44.8 s
Coagulation time Plasmas Heparins Batch 1635 (endogenous coagulation [4]; Ethylene Glycol gallate 50 μM): 73.1 s
Coagulation time Plasmas Heparins Batch 1726 (endogenous coagulation [4]; Ethylene Glycol gallate 50 μM): >140.0 s
Coagulation time Control batch n° 80901 Normal (endogenous coagulation [4]; Ethylene Glycol gallate 75 μM): 46.5 s
Coagulation time Control batch n° 80901 Path (endogenous coagulation [4]; Ethylene Glycol gallate 75 μM): 67.4 s
Coagulation time Plasma (LA) MA 030 (endogenous coagulation [4]; Ethylene Glycol gallate 75 μM): 50.4 s
Coagulation time Plasma def f VIIIc (endogenous coagulation [4]; Ethylene Glycol gallate 75 μM): 38.6 s
Coagulation time Plasmas Heparins Batch 1635 (endogenous coagulation [4]; Ethylene Glycol gallate 75 μM): 48.3 s
Coagulation time Plasmas Heparins Batch 1726 (endogenous coagulation [4]; Ethylene Glycol gallate 75 μM): 86.6 s
Coagulation time Control batch n° 80901 Normal (endogenous coagulation [4]; Ethylene Glycol gallate 100 μM): 38.4 s
Coagulation time Control batch n° 80901 Path (endogenous coagulation [4]; Ethylene Glycol gallate 100 μM): 46.2 s
Coagulation time Plasma (LA) MA 030 (endogenous coagulation [4]; Ethylene Glycol gallate 100 μM): 47.5 s
Coagulation time Plasma def f VIIIc (endogenous coagulation [4]; Ethylene Glycol gallate 100 μM): 38.2 s
Coagulation time Plasmas Heparins Batch 1635 (endogenous coagulation [4]; Ethylene Glycol gallate 100 μM): 48.0 s
Coagulation time Plasmas Heparins Batch 1726 (endogenous coagulation [4]; Ethylene Glycol gallate 100 μM): 80.0 s
Coagulation time Control batch n° 80901 Normal (endogenous coagulation [4]; Ethylene Glycol gallate 200 μM): 35.2 s
Coagulation time Control batch n° 80901 Path (endogenous coagulation [4]; Ethylene Glycol gallate 200 μM): 42.5 s
Coagulation time Plasma (LA) MA 030 (endogenous coagulation [4]; Ethylene Glycol gallate 200 μM): 46.7 s
Coagulation time Plasma def f VIIIc (endogenous coagulation [4]; Ethylene Glycol gallate 200 μM): 37.7 s
Coagulation time Plasmas Heparins Batch 1635 (endogenous coagulation [4]; Ethylene Glycol gallate 200 μM): 48.5 s
Coagulation time Plasmas Heparins Batch 1726 (endogenous coagulation [4]; Ethylene Glycol gallate 200 μM): 75.4 s
Coagulation time Control batch n° 80901 Normal (endogenous coagulation [4]; Ethylene Glycol gallate 300 μM): 34.3 s
Coagulation time Control batch n° 80901 Path (endogenous coagulation [4]; Ethylene Glycol gallate 300 μM): 39.6 s
Coagulation time Plasma (LA) MA 030 (endogenous coagulation [4]; Ethylene Glycol gallate 300 μM): 44.2 s
Coagulation time Plasma def f VIIIc (endogenous coagulation [4]; Ethylene Glycol gallate 300 μM): 37.5 s
Coagulation time Plasmas Heparins Batch 1635 (endogenous coagulation [4]; Ethylene Glycol gallate 300 μM): 47.7 s
Coagulation time Plasmas Heparins Batch 1726 (endogenous coagulation [4]; Ethylene Glycol gallate 300 μM): 73.7 s
Coagulation time Control batch n° 80901 Normal (endogenous coagulation [4]; Ethylene Glycol gallate 400 μM): 32.9 s
Coagulation time Control batch n° 80901 Path (endogenous coagulation [4]; Ethylene Glycol gallate 400 μM): 39.6 s
Coagulation time Plasma (LA) MA 030 (endogenous coagulation [4]; Ethylene Glycol gallate 400 μM): 43.4 s
Coagulation time Plasma def f VIIIc (endogenous coagulation [4]; Ethylene Glycol gallate 400 μM): 37.2 s
Coagulation time Plasmas Heparins Batch 1635 (endogenous coagulation [4]; Ethylene Glycol gallate 400 μM): 47.0 s
Coagulation time Plasmas Heparins Batch 1726 (endogenous coagulation [4]; Ethylene Glycol gallate 400 μM): 75.1 s
Coagulation time Control batch n° 80901 Normal (endogenous coagulation [4]; Ethylene Glycol gallate 500 μM): 32.6 s
Coagulation time Control batch n° 80901 Path (endogenous coagulation [4]; Ethylene Glycol gallate 500 μM): 48.5 s
Coagulation time Plasma (LA) MA 030 (endogenous coagulation [4]; Ethylene Glycol gallate 500 μM): 43.0 s
Coagulation time Plasma def f VIIIc (endogenous coagulation [4]; Ethylene Glycol gallate 500 μM): 37.5 s
Coagulation time Plasmas Heparins Batch 1635 (endogenous coagulation [4]; Ethylene Glycol gallate 500 μM): 47.3 s
Coagulation time Plasmas Heparins Batch 1726 (endogenous coagulation [4]; Ethylene Glycol gallate 500 μM): 76.1 s
Coagulation time Control batch n° 80901 Normal (endogenous coagulation [4]; [5]): 33.4 s
Coagulation time Control batch n° 80901 Path (endogenous coagulation [4]; [5]): 51.5 s
Coagulation time Plasma (LA) MA 030 (endogenous coagulation [4]; [5]): 42.5 s
Coagulation time Plasma def f VIIIc (endogenous coagulation [4]; [5]): 37.1 s
Coagulation time Plasmas Heparins Batch 1635 (endogenous coagulation [4]; [5]): 47.9 s
Coagulation time Plasmas Heparins Batch 1726 (endogenous coagulation [4]; [5]): 76.3 s
Coagulation time, f VII def 25% (endogenous coagulation [2]): 35.6 s

ethylene diamine gallate [H2N—(CH2)n—NH2 n=2]
Coagulation time, CCN (endogenous coagulation [1]): 138.1 s
Coagulation time, CCP (endogenous coagulation [1]): 177.9 s
Coagulation time, Heparins Batch 0811 (endogenous coagulation [1]): >300.0 s
Coagulation time, Heparins Batch 1706 (endogenous coagulation [1]): 228.4 s
Coagulation time, Lupus Batch 021 (endogenous coagulation [1]): 167.6 s
Coagulation time, Pool N LIK 800 (endogenous coagulation [1]): 111.5 s
Coagulation time, f VII def 25% (endogenous coagulation [2]): 113.0 s
